{"source": "BindingDB's records for PubMed 1362243", "about": "(National Institute of Mental Health, 1992)", "molecular_target": "Somatostatin receptor type 4 (Rattus norvegicus, UniProt P30937)", "sequence (P30937 whole entry)": "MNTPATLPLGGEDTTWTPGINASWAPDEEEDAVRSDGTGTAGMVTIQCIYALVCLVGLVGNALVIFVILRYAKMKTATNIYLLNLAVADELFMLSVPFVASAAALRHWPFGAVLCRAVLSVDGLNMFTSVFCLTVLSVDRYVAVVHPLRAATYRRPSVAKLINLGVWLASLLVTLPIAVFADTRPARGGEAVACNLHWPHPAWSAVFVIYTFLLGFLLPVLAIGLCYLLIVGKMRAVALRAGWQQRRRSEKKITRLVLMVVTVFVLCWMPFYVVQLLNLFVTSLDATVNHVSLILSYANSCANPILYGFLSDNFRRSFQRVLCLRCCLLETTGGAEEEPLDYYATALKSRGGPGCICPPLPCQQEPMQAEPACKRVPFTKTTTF", "note": "pKi: −log10 of the molar value. Positions of bridges follow the written chain, without caps; N, C: chain ends. Non-standard residues stand in square brackets, D forms with d. Residues, ends and D or L forms follow the SMILES beside them. *: point of attachment. X1 = CC(O)[C@H](CO)N*"}
{"smiles": "CC(O)[C@H](CO)NC(=O)[C@@H]1CSSC[C@H](NC(=O)[C@H](N)Cc2ccccc2)C(=O)N[C@@H](Cc2ccccc2)C(=O)N[C@H](Cc2c[nH]c3ccccc23)C(=O)N[C@@H](CCCCN)C(=O)N[C@@H]([C@@H](C)O)C(=O)N1", "note": "(some centres not stated) (H-[dF]CF[dW]KTC-X1; disulfide 2-7)", "values": [{"measurement": "pKi", "result": 9.74}]}
{"smiles": "CSCC[C@H](NC(=O)[C@H](C)NC(=O)[C@@H]1CCCN1C(=O)[C@H](CC(N)=O)NC(=O)[C@H](CO)NC(=O)[C@H](CC(N)=O)NC(=O)[C@H](C)NC(=O)[C@@H](N)CO)C(=O)N[C@@H](C)C(=O)N1CCC[C@H]1C(=O)N[C@@H](CCCNC(=N)N)C(=O)N[C@@H](CCC(=O)O)C(=O)N[C@@H](CCCNC(=N)N)C(=O)N[C@@H](CCCCN)C(=O)N[C@@H](C)C(=O)NCC(=O)N[C@H]1CSSC[C@@H](C(=O)O)NC(=O)[C@H](CO)NC(=O)[C@H]([C@@H](C)O)NC(=O)[C@H](Cc2ccccc2)NC(=O)[C@H]([C@@H](C)O)NC(=O)[C@H](CCCCN)NC(=O)[C@H](Cc2c[nH]c3ccccc23)NC(=O)[C@H](Cc2ccccc2)NC(=O)[C@H](Cc2ccccc2)NC(=O)[C@H](CC(N)=O)NC(=O)[C@H](CCCCN)NC1=O", "note": "[somatostatin-28]", "values": [{"measurement": "pKi", "result": 10.10}]}
